We go through 25 compounds from patent US20230077362A1 (CORTEVA AGRISCIENCE LLC, priority 2019, published 2023).

The subject of test [1] is Beet Armyworm (Spodoptera exigua) ("BAW"), second instar larvae. Nature of the test: Bioassay on beet armyworm (BAW), 128-well diet tray assay. As to conditions: for pest or weed control at 50 µg/cm2: Spodoptera exigua, read-out: BAW rating; for BAW rating: Table ABC, species BAW, C = not tested, D = no activity noticed. Format: in vivo. In outline:
(§1)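 Sealed trays, 25° C., 14:10 light:dark, 5–7 d. Per-well % mortality recorded, mean of eight wells reported.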

Test [2] deals with Cabbage Looper (Trichoplusia ni) ("CL"), second instar larvae. Nature of the test: Bioassay on cabbage looper (CL), 128-well diet tray assay. The format is in vivo. As to conditions: for pest or weed control at 50 µg/cm2: Trichoplusia ni, read-out: CL rating; for CL rating: Table ABC, species CL, C = not tested, D = no activity noticed. A digest of the protocol: as §1

For the compound `Cc1cc(-c2cn(-c3ccc(C(F)(F)F)cc3)cn2)ccc1NC(=O)/N=C1\SCC(=O)N1c1cc(N(C)C)ccc1C(C)C` [Compound J524, (Z)-1-(3-(5-(Dimethylamino)-2-isopropylphenyl)-4-oxothiazolidin-2-ylidene)-3-(2-methyl-4-(1-(4-(trifluoromethyl)phenyl)-1H-imidazol-4-yl)phenyl)urea], the pest or weed control at 50 µg/cm2 in test [1] and in test [2] was 50 to 100% throughout.

As to `COC(C)c1ccc(C)cc1N1C(=O)CS/C1=N\C(=O)Nc1ccc(-c2cn(-c3ccc(C(F)(F)F)cc3)cn2)cc1C` (centres unmarked) [Compound J525, (Z)-1-(3-(2-(1-Methoxyethyl)-5-methylphenyl)-4-oxothiazolidin-2-ylidene)-3-(2-methyl-4-(1-(4-(trifluoromethyl)phenyl)-1H-imidazol-4-yl)phenyl)urea], the pest or weed control at 50 µg/cm2 in test [1] and in test [2] was 50 to 100% each time.

For `Cc1ccc(COCC(F)(F)F)c(N2C(=O)CS/C2=N\C(=O)Nc2ccc(-c3cn(-c4ccc(C(F)(F)F)cc4)cn3)cc2C)c1` [Compound J526, (Z)-1-(3-(5-Methyl-2-((2,2,2-trifluoroethoxy)methyl)phenyl)-4-oxothiazolidin-2-ylidene)-3-(2-methyl-4-(1-(4-(trifluoromethyl)phenyl)-1H-imidazol-4-yl)phenyl)urea], the pest or weed control at 50 µg/cm2 in test [1] and in test [2] was 50 to 100% in each case.

For `Cc1ccc(OCCC(F)(F)F)c(N2C(=O)CS/C2=N\C(=O)Nc2ccc(-c3cn(-c4ccc(C(F)(F)F)cc4)cn3)cc2C)c1` [Compound J527, (Z)-1-(3-(5-Methyl-2-(3,3,3-trifluoropropoxy)phenyl)-4-oxothiazolidin-2-ylidene)-3-(2-methyl-4-(1-(4-(trifluoromethyl)phenyl)-1H-imidazol-4-yl)phenyl)urea], the pest or weed control at 50 µg/cm2 in test [1] and in test [2] was 50 to 100% throughout.

On to `CC(C)c1ccc(N(C)C)cc1N1C(=O)CS/C1=N\C(=O)Nc1ccc(-c2cn(-c3ccc(OC(F)(F)F)cc3)cn2)cc1` [Compound J529, (Z)-1-(3-(5-(Dimethylamino)-2-isopropylphenyl)-4-oxothiazolidin-2-ylidene)-3-(4-(1-(4-(trifluoromethoxy)phenyl)-1H-imidazol-4-yl)phenyl)urea], for which the pest or weed control at 50 µg/cm2 in test [1] and in test [2] was 50 to 100% in each case.

`Cc1ccc(COCC(C)(F)F)c(N2C(=O)CS/C2=N\C(=O)Nc2ccc(-c3ncn(-c4ccc(OC(F)(F)F)cc4)n3)cc2C)c1` [Compound J534]: in test [1], the BAW rating result is recorded as “A (50-100)”. In test [2], the CL rating entry is “A (50-100)”.

For `Cc1ccc(COCC(C)(F)F)c(N2C(=O)CS/C2=N\C(=O)Nc2ccc(-c3ncn(-c4ccc(OC(F)(F)F)cc4)n3)cc2F)c1` [Compound J535], the BAW rating entry in test [1] was “A (50-100)”. In addition, in test [2], the CL rating result is given as “A (50-100)”.

As to `CCCOc1ccc(C)cc1N1C(=O)CS/C1=N\C(=O)Nc1ccc(-c2ncn(-c3ccc(S(F)(F)(F)(F)F)cc3)n2)cc1F` [Compound J541], the pest or weed control at 50 µg/cm2 in test [1] and in test [2] was 50 to 100% each time.

On to `Cc1ccc(COCCC(F)(F)F)c(N2C(=O)CS/C2=N\C(=O)Nc2ccc(-c3ncn(-c4ccc(OC(F)(F)F)cc4)n3)cc2F)c1` [Compound J543], for which the BAW rating entry in test [1] is listed as “A (50-100)”. Also, the CL rating entry in test [2] is on record as “A (50-100)”.

With `CCCOCc1ccc(C)cc1N1C(=O)CS/C1=N\C(=O)Nc1ccc(-c2ncn(-c3ccc(S(F)(F)(F)(F)F)cc3)n2)cc1F` [Compound J544], the BAW rating entry in test [1] is “A (50-100)”. Moreover, the CL rating result in test [2] is listed as “A (50-100)”.

As for `CCCOCc1ccc(C)cc1N1C(=O)CS/C1=N\C(=O)Nc1ccc(-c2ncn(-c3ccc(OC(F)(F)F)cc3)n2)cc1C` [Compound J546], the BAW rating entry in test [1] is on record as “A (50-100)”. Also, the CL rating entry in test [2] is recorded as “A (50-100)”.

As to `Cc1ccc(COCCC(F)(F)F)c(N2C(=O)CS/C2=N\C(=O)Nc2ccc(-c3ncn(-c4ccc(C(F)(F)F)cc4)n3)cc2F)c1` [Compound J547], in test [1], the BAW rating entry is “A (50-100)”. Besides, the CL rating result in test [2] was “A (50-100)”.

With `CCOCc1ccc(C)cc1N1C(=O)CS/C1=N\C(=O)Nc1ccc(-c2ncn(-c3ccc(S(F)(F)(F)(F)F)cc3)n2)cc1C` [Compound J548], the BAW rating result in test [1] is recorded as “A (50-100)”. Further, the CL rating entry in test [2] is on record as “A (50-100)”.

For the compound `Cc1ccc(COCC(F)(F)F)c(N2C(=O)CS/C2=N\C(=O)Nc2ccc(-c3ncn(-c4ccc(S(F)(F)(F)(F)F)cc4)n3)cc2C)c1` [Compound J549], the BAW rating entry in test [1] is “A (50-100)”. Further, the CL rating result in test [2] is recorded as “A (50-100)”.

With `Cc1ccc(COCC(Cl)(Cl)Cl)c(N2C(=O)CS/C2=N\C(=O)Nc2ccc(-c3ncn(-c4ccc(C(F)(F)F)cc4)n3)cc2F)c1` [Compound J550], the BAW rating entry in test [1] is given as “A (50-100)”. Further, the CL rating entry in test [2] was “A (50-100)”.

For `Cc1ccc(COCCF)c(N2C(=O)CS/C2=N\C(=O)Nc2ccc(-c3ncn(-c4ccc(OC(F)(F)F)cc4)n3)cc2F)c1` [Compound J551], in test [1], the BAW rating entry was “A (50-100)”. Besides, the CL rating entry in test [2] was “A (50-100)”.

`Cc1ccc(COCCF)c(N2C(=O)CS/C2=N\C(=O)Nc2ccc(-c3ncn(-c4ccc(S(F)(F)(F)(F)F)cc4)n3)cc2F)c1` [Compound J552]: the pest or weed control at 50 µg/cm2 in test [1] and in test [2] was 50 to 100% throughout.

Consider `Cc1ccc(COCC(Cl)Cl)c(N2C(=O)CS/C2=N\C(=O)Nc2ccc(-c3ncn(-c4ccc(OC(F)(F)F)cc4)n3)cc2F)c1` [Compound J553], for which the BAW rating entry in test [1] is on record as “A (50-100)”. The CL rating result in test [2] was “A (50-100)”.

`Cc1ccc(COCC(Cl)Cl)c(N2C(=O)CS/C2=N\C(=O)Nc2ccc(-c3ncn(-c4ccc(S(F)(F)(F)(F)F)cc4)n3)cc2F)c1` [Compound J554]: in test [1], the BAW rating entry is given as “A (50-100)”. Further, the CL rating result in test [2] is on record as “A (50-100)”.

On to `Cc1ccc(COCC(Cl)Cl)c(N2C(=O)CS/C2=N\C(=O)Nc2ccc(-c3ncn(-c4ccc(OC(F)(F)F)cc4)n3)cc2C)c1` [Compound J555], for which the pest or weed control at 50 µg/cm2 in test [1] and in test [2] was 50 to 100% in each case.

Turning to `Cc1ccc(COCC(Cl)Cl)c(N2C(=O)CS/C2=N\C(=O)Nc2ccc(-c3ncn(-c4ccc(S(F)(F)(F)(F)F)cc4)n3)cc2C)c1` [Compound J556], the BAW rating result in test [1] is given as “A (50-100)”. The CL rating entry in test [2] is given as “A (50-100)”.

With `Cc1ccc(COCCF)c(N2C(=O)CS/C2=N\C(=O)Nc2ccc(-c3ncn(-c4ccc(S(F)(F)(F)(F)F)cc4)n3)cc2C)c1` [Compound J557], in test [1], the BAW rating entry is reported as “A (50-100)”. In addition, the CL rating result in test [2] was “A (50-100)”.

As for `Cc1ccc(COCCF)c(N2C(=O)CS/C2=N\C(=O)Nc2ccc(-c3ncn(-c4ccc(OC(F)(F)F)cc4)n3)cc2C)c1` [Compound J558], the BAW rating entry in test [1] is listed as “A (50-100)”. Further, the CL rating entry in test [2] is reported as “A (50-100)”.

Regarding `Cc1ccc(COCC(Cl)Cl)c(N2C(=O)CS/C2=N\C(=O)Nc2ccc(-c3ncn(-c4ccc(C(F)(F)F)cc4)n3)cc2F)c1` [Compound J559], the BAW rating result in test [1] is “A (50-100)”. Further, in test [2], the CL rating entry is reported as “A (50-100)”.

As to `COc1cc(COCC(F)(F)F)c(N2C(=O)CS/C2=N\C(=O)Nc2ccc(-c3ncn(-c4ccc(OC(F)(F)F)cc4)n3)cc2F)cc1OC` [Compound J560], the BAW rating entry in test [1] is on record as “A (50-100)”. Further, the CL rating entry in test [2] is recorded as “A (50-100)”.
